Values of other authors in patent US20250340675A1 (priority 2022, published 2025).

How the values were obtained:
[1] = tested on: mice; details: oral administration in mice
[2] = tested on: mice; details: neurotoxic adverse effects; oral administration in mice
[3] = tested on: albino mice; details: mouse, in vivo
[4] = in vivo

Compound: OCCCCO [1,4-Butanediol]
- median lethal dose (LD50) [1]: 1,525 mg/kg
- no observed adverse effect level (NOAEL) [2]: 100 mg/kg per day

Compound: O=C(O)c1cc(O)c(O)c(O)c1 [gallic acid, 3,4,5-trihydroxy benzoic acid]
- LD50 (acute toxicity) [3]: greater than 2000 mg/kg

Compound: Hyaluronic acid [HA]
- half-life ([4]; human): 24÷48 hours
- average turnover rate [4]: 5 g/day
